Measurements reported in patent US11439622B2 (OXFORD UNIVERSITY INNOVATION LIMITED, priority 2015, dated 2022).

Legend:
[1] = target: VIM-2 (Veronese metallo-β-lactamase-2) (Escherichia coli, UniProt Q5U7L7); test: Enzyme inhibition assay, VIM-2; format: biochemical; details: for IC50: read-out: pIC50 VIM-2 (converted)
Description: (§1) The biological activity of the compounds of the present invention was tested using standard assay protocols.^7 The following representative enzymes NDM-1 (New Delhi metallo-β-lactamase-1), IMP-1 (Imipenemase-1) and VIM-2 (Veronese metallo-β-lactamase-2) were selected from different clinically relevant B1 metallo-β-lactamases.

IMP-1 (Imipenemase-1) = IMP-1 (Imipenemase-1) (Serratia marcescens, UniProt P52699); test: Enzyme inhibition assay, IMP-1; format: biochemical; details: for IC50: read-out: pIC50 IMP-1 (converted)
IMP-1 (Imipenemase-1), sequence (P52699 19-246, looked up, species assumed): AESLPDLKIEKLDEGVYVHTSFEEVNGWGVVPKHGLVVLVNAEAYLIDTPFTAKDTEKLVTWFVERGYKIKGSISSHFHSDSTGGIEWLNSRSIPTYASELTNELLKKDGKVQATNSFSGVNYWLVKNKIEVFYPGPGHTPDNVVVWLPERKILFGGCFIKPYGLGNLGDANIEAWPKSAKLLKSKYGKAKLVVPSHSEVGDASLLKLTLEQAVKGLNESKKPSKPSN
Description: as §1

[2] = target: NDM-1 (New Delhi metallo-β-lactamase-1) (Klebsiella pneumoniae, UniProt C7C422); test: Enzyme inhibition assay, NDM-1; format: biochemical; details: read-out: pIC50 NDM-1 (converted)
NDM-1 (New Delhi metallo-β-lactamase-1), sequence (C7C422 29-270, looked up, species assumed): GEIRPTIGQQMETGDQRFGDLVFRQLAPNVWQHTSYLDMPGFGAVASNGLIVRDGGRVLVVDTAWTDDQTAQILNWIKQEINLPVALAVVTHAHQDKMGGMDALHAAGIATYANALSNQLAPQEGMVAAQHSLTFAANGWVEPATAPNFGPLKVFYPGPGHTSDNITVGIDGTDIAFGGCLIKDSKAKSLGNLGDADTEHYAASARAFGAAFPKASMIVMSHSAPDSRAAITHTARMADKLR
Description: as §1

E. coli IR60 = test: Meropenem MIC, CLSI broth microdilution; format: cell-based; details: inhibitor 10 μg/ml
Description: (§2) CLSI, Wayne, Pa.) in the absence of each inhibitor or in its presence at the concentration stated. In each case the inhibitor solution was added to broth at 0.1% v/v to achieve the required final concentration; DMSO was used to dissolve inhibitors.
(§3) For initial evaluations of the in vitro cell based activity of indole carboxylates we used well characterized bacterial strains (e.g. K. pneumoniae 5055; E. coli ATCC 25713) transformed with broad host range plasmids (e.g. pSU18 and derivatives) encoding few metallo-β-lactamases produced using their physiological (integron) promoters. We also tested a clinical strain, IR60 in the initial studies.^8
IR60 is a clinically strain original from India.^8 IR60 is also a multiresistant clinical strain.

E. coli 25922 (control) = test: Meropenem MIC, CLSI broth microdilution; format: cell-based; details: inhibitor 10 μg/ml
Description: as §2, §3

[3] = system: K. pneumoniae 5055 (control); test: Meropenem MIC, CLSI broth microdilution; format: cell-based; details: for Meropenem MIC in presence of inhibitor: inhibitor 10 μg/ml
Description: as §2, §3

[4] = system: K. pneumoniae 5055 + NDM-1; test: Meropenem MIC, CLSI broth microdilution; format: cell-based; details: inhibitor 10 μg/ml
Description: as §2, §3

E. coli EC10 NDM-1 = test: Meropenem MIC, clinically derived strains; format: cell-based; details: inhibitor 10 μg/ml
Description: as §2

K. pneumoniae 5055 IMP-1 = test: Meropenem MIC, clinically derived strains; format: cell-based; details: for Meropenem MIC in presence of inhibitor: inhibitor 10 μg/ml
Description: as §2
(§4) The results shown in Table 2 reveal that compounds of formula (I) are active in cells, including clinically relevant bacterial strains. Further studies were carried out to determine if compound of formula (I) potentiates BLA activity in clinically derived strains containing IMP-4, […] or NDM-1, which are the most commonly observed MBLs in clinical isolates.

K. pneumoniae A34 VIM-4 = test: Meropenem MIC, clinically derived strains; format: cell-based; details: for Meropenem MIC in presence of inhibitor: inhibitor 10 μg/ml
Description: as §2, §4

K. pneumoniae B12 IMP-4 = test: Meropenem MIC, clinically derived strains; format: cell-based; details: for Meropenem MIC in presence of inhibitor: inhibitor 10 μg/ml
Description: as §2, §4

K. pneumoniae B19 IMP-4 = test: Meropenem MIC, clinically derived strains; format: cell-based; details: for Meropenem MIC in presence of inhibitor: inhibitor 10 μg/ml
Description: as §2, §4

K. pneumoniae IR16 NDM-1 = test: Meropenem MIC, clinically derived strains; format: cell-based; details: for Meropenem MIC in presence of inhibitor: inhibitor 10 μg/ml
Description: as §2, §4

[5] = system: K. pneumonia strain containing most clinically significant MBLs; test: Screening against K. pneumonia strain containing MBLs, overall statement; format: cell-based; details: Table 4
Description: as §2

Row | Structure (SMILES) | IC50 [1] | IC50 (IMP-1 (Imipenemase-1)) | IC50 [2] | Meropenem MIC in presence of inhibitor (E. coli IR60) | Meropenem MIC in presence of inhibitor (E. coli 25922 (control)) | Meropenem MIC in presence of inhibitor [3] | Meropenem MIC in presence of inhibitor [4] | Meropenem MIC in presence of inhibitor (E. coli EC10 NDM-1) | Meropenem MIC in presence of inhibitor (K. pneumoniae 5055 IMP-1) | Meropenem MIC in presence of inhibitor (K. pneumoniae A34 VIM-4) | Meropenem MIC in presence of inhibitor (K. pneumoniae B12 IMP-4) | Meropenem MIC in presence of inhibitor (K. pneumoniae B19 IMP-4) | Meropenem MIC in presence of inhibitor (K. pneumoniae IR16 NDM-1) | other results
1 | Cc1cccc2c(-c3ccc(S(N)(=O)=O)cc3)c(C(=O)O)[nH]c12 [Example 6, 7-methyl-3-(4-sulfamoylphenyl)-1H-indole-2-carboxylic acid] | 316 nM | 10000 nM | 15.8 nM | < 0.25 µg/mL | < 0.25 µg/mL | < 0.25 µg/mL | 1 µg/mL | 8 µg/mL | 8 µg/mL | 16 µg/mL | 16 µg/mL | 8 µg/mL | 2 µg/mL | 
2 | Cc1cccc2c(-c3ccc(S(C)(=O)=O)cc3)c(C(=O)O)[nH]c12 [Example 12, 7-methyl-3-(4-(methylsulfonyl)phenyl)-1H-indole-2-carboxylic acid] | 316 nM | 12600 nM | 12.6 nM | < 0.5 µg/mL | < 0.25 µg/mL | < 0.25 µg/mL | 8 µg/mL | 8 µg/mL | 8 µg/mL | 16 µg/mL | 8 µg/mL | 8 µg/mL | 1 µg/mL | 
3 | CC(C)c1cccc2c(-c3ccc(F)cc3)c(C(=O)O)[nH]c12 [Example 53, 3-(4-fluorophenyl)-7-isopropyl-1H-indole-2-carboxylic acid] | 31.6 nM | 501 nM | 12.6 nM | < 0.25 µg/mL | < 0.25 µg/mL | < 0.25 µg/mL | 4 µg/mL | 1 µg/mL | 2 µg/mL | 4 µg/mL | 2 µg/mL | 1 µg/mL | 1 µg/mL | 
4 | CC(C)c1cccc2c(-c3cc(Cl)cc(Cl)c3)c(C(=O)O)[nH]c12 [Example 76, 3-(3,5-dichlorophenyl)-7-isopropyl-1H-indole-2-carboxylic acid] | 3.98 nM | 15.8 nM | 7.94 nM |  |  |  |  |  |  |  |  |  |  | activity against all the MBLs [5]: good activity
5 | CC(C)c1cccc2c(-c3ccc(S(=O)(=O)N(C)C)cc3)c(C(=O)Nc3ccccc3)[nH]c12 [Example 127, 3-(4-(N,N-dimethylsulfamoyl)phenyl)-7-isopropyl-N-phenyl-1H-indole-2-carboxamide] |  |  | 398 nM |  |  |  |  |  |  |  |  |  |  | pIC50 VIM-2 [1]: N.I.; pIC50 IMP-1 (IMP-1 (Imipenemase-1)): N.I.
6 | C[C@@H](O)[C@H]1C(=O)N2C(C(=O)O)=C(S[C@@H]3CN[C@H](C(=O)N(C)C)C3)[C@H](C)[C@H]12 [Meropenem, meropenem, reference compound] |  |  |  |  |  |  |  |  |  |  |  |  |  | Meropenem MICs ([3]; meropenem alone): < 0.25 µg/mL; Meropenem MIC (K. pneumoniae 5055 IMP-1; meropenem alone): 16 µg/mL; Meropenem MIC (K. pneumoniae A34 VIM-4; meropenem alone): 64 µg/mL; Meropenem MIC (K. pneumoniae B12 IMP-4; meropenem alone): 16 µg/mL; Meropenem MIC (K. pneumoniae B19 IMP-4; meropenem alone): 16 µg/mL; Meropenem MIC (K. pneumoniae IR16 NDM-1; meropenem alone): 16 µg/mL
